# From US20130296436A1, “AMIDINE COMPOUNDS AND USE THEREOF FOR PLANT DISEASE CONTROL” (SUMITOMO CHEMICAL COMPANY, LIMITED, priority 2010, published 2013)
# Tested on: Pyrenophora teres
# Assay: Test Example 8: barley Pyrenophora teres, foliar application before inoculation, 50 ppm
# Type: in vivo
# Conditions: barley (Nishinohoshi), 50 ppm foliar application, inoculated two days after, 3 days + 7 days
smiles,measurement,value
CCN(C)/C=N/c1cc(C)c(OCC(F)(F)C(F)(F)C(F)(F)C(F)(F)C(F)(F)F)cc1C [present compound 7],lesion area on the treated plant relative to the area of lesions on an untreated plant,≤ 30%
